Results: ChEMBL document CHEMBL1157233, “5,6:8,9-diepoxy and other cytotoxic sterols from the marine sponge Homaxinella sp” (2006)
In brackets after ≈: the same amount, converted by molar mass.

How the values were obtained:
Assay type in all cases: functional
Conditions in all cases: read-out: ED50 (the source's name)
[1] = tested on: A549; experiment: Cytotoxicity against human A549 cells
[2] = tested on: HCT-15; experiment: Cytotoxicity against human HCT15 cells
[3] = tested on: SK-MEL-2; experiment: Cytotoxicity against human SK-MEL-2 cells
[4] = tested on: SK-OV-3; experiment: Cytotoxicity against human SKOV3 cells
[5] = tested on: XF498; experiment: Cytotoxicity against human XF498 cells

Structure (SMILES) | EC50 [1] | EC50 [2] | EC50 [3] | EC50 [4] | EC50 [5]
CC[C@@H](/C=C/[C@@H](C)[C@H]1CC[C@H]2C3=C[C@@H](OC)[C@@]4(O)C[C@@H](O)CC[C@]4(C)[C@H]3CC[C@]12C)C(C)C | 4.4 µg/mL (≈ 9.59 µM) | 4.9 µg/mL (≈ 10.7 µM) | 5.2 µg/mL (≈ 11.3 µM) | 7 µg/mL (≈ 15.3 µM) | 3.8 µg/mL (≈ 8.28 µM)
CC(C)C/C=C/[C@@H](C)[C@H]1CC[C@@H]2[C@]1(C)CC[C@@]13O[C@@]21[C@H](O)[C@@H]1O[C@@]12C[C@@H](O)CC[C@]32C [HOMAXISTEROL B1] | 3.9 µg/mL (≈ 9.06 µM) | 3.2 µg/mL (≈ 7.43 µM) | 3.1 µg/mL (≈ 7.2 µM) | 3.5 µg/mL (≈ 8.13 µM) | 3.4 µg/mL (≈ 7.9 µM)
CC[C@@H](/C=C/[C@@H](C)[C@H]1CC[C@@H]2[C@]1(C)CC[C@@]13O[C@@]21[C@H](O)[C@@H]1O[C@@]12C[C@@H](O)CC[C@]32C)C(C)C (relative stereo) [HOMAXISTEROL B2] | 1.4 µg/mL (≈ 3.05 µM) | 1.1 µg/mL (≈ 2.4 µM) | 1.1 µg/mL (≈ 2.4 µM) | 1.3 µg/mL (≈ 2.83 µM) | 1 µg/mL (≈ 2.18 µM)
COc1cccc2c1C(=O)c1c(O)c3c(c(O)c1C2=O)C[C@@](O)(C(=O)CO)C[C@@H]3O[C@H]1C[C@H](N)[C@H](O)[C@H](C)O1 (stereo in doubt) [DOXORUBICIN] | 0.01 µg/mL (≈ 0.0184 µM) | 0.05 µg/mL (≈ 0.092 µM) | 0.01 µg/mL (≈ 0.0184 µM) | 0.03 µg/mL (≈ 0.0552 µM) | 0.01 µg/mL (≈ 0.0184 µM)
CC(C)[C@@H](C)/C=C/[C@@H](C)[C@H]1CC[C@H]2C3=C[C@@H](O)[C@@]4(O)C[C@@H](O)CC[C@]4(C)[C@H]3CC[C@]12C [CEREVISTEROL] | 3.9 µg/mL (≈ 9.06 µM) | 3 µg/mL (≈ 6.97 µM) | 2.8 µg/mL (≈ 6.5 µM) | 6 µg/mL (≈ 13.9 µM) | 3.3 µg/mL (≈ 7.66 µM)
CC(C)[C@H](C)/C=C/[C@@H](C)[C@H]1CC[C@H]2C3=C[C@@H](O)[C@@]4(O)C[C@@H](O)CC[C@]4(C)[C@H]3CC[C@]12C | > 5 µg/mL | > 5 µg/mL | > 5 µg/mL | > 5 µg/mL | > 5 µg/mL
CC(C)C(C)/C=C/[C@@H](C)[C@H]1CC[C@@H]2[C@]1(C)CC[C@@]13O[C@@]21[C@H](O)[C@@H]1O[C@@]12C[C@@H](O)CC[C@]32C (stereo not given in full) | 7.1 µg/mL (≈ 16 µM) | 4.8 µg/mL (≈ 10.8 µM) | 2.7 µg/mL (≈ 6.07 µM) | 6.3 µg/mL (≈ 14.2 µM) | 3.4 µg/mL (≈ 7.65 µM)
CC(C)C/C=C/[C@@H](C)[C@H]1CC[C@H]2C3=C[C@@H](O)[C@@]4(O)C[C@@H](O)CC[C@]4(C)[C@@]3(O)CC[C@]12C | > 5 µg/mL | > 5 µg/mL | > 5 µg/mL | > 5 µg/mL | > 5 µg/mL
CC(C)C/C=C/[C@@H](C)[C@H]1CC[C@H]2C3=C[C@@H](O)[C@@]4(O)C[C@@H](O)CC[C@]4(C)[C@H]3CC[C@]12C | > 5 µg/mL | > 5 µg/mL | > 5 µg/mL | > 5 µg/mL | > 5 µg/mL
CC(C)C/C=C/[C@@H](C)[C@H]1CC[C@H]2C3=C[C@H](O)[C@@]4(O)C[C@@H](O)CC[C@]4(C)[C@H]3CC[C@]12C [HOMAXISTEROL D1] | 3.5 µg/mL (≈ 8.4 µM) | 3.1 µg/mL (≈ 7.44 µM) | 3.1 µg/mL (≈ 7.44 µM) | 3.9 µg/mL (≈ 9.36 µM) | 3.1 µg/mL (≈ 7.44 µM)
CC(C)C/C=C/[C@@H](C)[C@H]1CC[C@H]2C3=CC(=O)[C@@]4(O)C[C@@H](O)CC[C@]4(C)[C@@]3(O)CC[C@]12C [HOMAXISTEROL C1] | 5 µg/mL (≈ 11.6 µM) | 3.7 µg/mL (≈ 8.59 µM) | 3.9 µg/mL (≈ 9.06 µM) | 7 µg/mL (≈ 16.3 µM) | 3.7 µg/mL (≈ 8.59 µM)
CC[C@@H](/C=C/[C@@H](C)[C@H]1CC[C@H]2C3=C[C@@H](O)[C@@]4(O)C[C@@H](O)CC[C@]4(C)[C@H]3CC[C@]12C)C(C)C | > 5 µg/mL | > 5 µg/mL | > 5 µg/mL | > 5 µg/mL | > 5 µg/mL
CO[C@@H]1C=C2[C@@H]3CC[C@H]([C@H](C)/C=C/CC(C)C)[C@@]3(C)CC[C@@H]2[C@@]2(C)CC[C@H](O)C[C@]12O | 4.8 µg/mL (≈ 11.1 µM) | 4.2 µg/mL (≈ 9.75 µM) | 3.4 µg/mL (≈ 7.89 µM) | 7.1 µg/mL (≈ 16.5 µM) | 4 µg/mL (≈ 9.29 µM)
CC[C@@H](/C=C/[C@@H](C)[C@H]1CC[C@H]2C3=C[C@@H](O)[C@@]4(O)C[C@@H](O)CC[C@]4(C)[C@@]3(O)CC[C@]12C)C(C)C | > 5 µg/mL | > 5 µg/mL | > 5 µg/mL | > 5 µg/mL | > 5 µg/mL
